Several values for one entry are separate records, joined by “and”; a condition that tells them apart may be missing. Identical values can stand only once.
Legend:
Format in all cases: in vivo, mouse
[1] = Observation of drowsiness or other side effects in mice of the itch experiments
From the text: (§1) 6-8 weeks old C57 mice were employed in experiments (body weight of 17-20 grams, from the Experimental Animal Center of Sun Yat-Sen University). The mice were randomly divided into four groups, namely solvent+histamine control group, BLA+histamine group, solvent+chloroquine control group and BLA+chloroquine group. For the convenience of subcutaneous injection and observation of scratching, the hair around the neck and back (at least 3×5 cm) was shaved off under temporary anesthesia with isoflurane three days before the start of the experiments. The control group was given a subcutaneous injection of 50 μl of histamine (2 mg/ml) or chloroquine (4 mg/ml), with an intragastric administration of a solvent (carboxymethyl cellulose) 2 hours before the injection. The experiment group was given an intragastric administration of BLA with different dosages (0.125, 0.25 and 0.5 mg/kg), 2 hours before the injection of histamine or chloroquine. The BLA was administered 2 hours in advance, because it needs 1.5-2 hours for BLA to take effect from its intragastric administration. The number of scratching in each group was counted within 30 minutes for comparison, because the acute scratching response induced by histamine or chloroquine subsided 30 minutes later after drug injection as shown by previous studies.
BLA inhibited the itch caused by histamine or chloroquine in a manner of depending on the dosage of intragastric administration.

[2] = system: acute itch caused by histamine; assay: Acute itch model: scratching of mice after subcutaneous histamine, BLA given intragastrically 2 h before; settings: for Number of scratching in mouse in the histamine group (single animals): between 2 and 2.5 hours after BLA (30 min), individual mouse; for Number of scratching in mouse in the histamine group, average number: 30 min, solvent group 36.56667
From the text: (§2) Researches over the years have shown that itch is mainly transmitted by two types of C fibers, with one sensitive to histamine and the other to chloroquine. Therefore, the scratching response of animals caused by subcutaneous injection of histamine or chloroquine is internationally recognized as an acute itch model. The present disclosure is aimed to investigate whether the intragastric administration of bulleyaconitine A (BLA) can inhibit acute itch caused by histamine or chloroquine.
as §1
(§3) During the recording in experiment, the mice were placed in separate, transparent acrylic boxes having a size of 15×15×20 cm each, and with two small openings at top of each box to allow air to circulate. The scratching behavior was recorded as video by a camera, which was placed above mouse because their behaviors of scratching their back or neck mostly happen in an angle of view directly opposite to their upper back.
(§4) In order to minimize attentional shift and eliminate tension as much as possible, each transparent box was supplied with a small amount of padding, to absorb any urine excreted from the mouse. The ambient temperature was kept at 23-27° C., and additionally all the staff were asked to leave during the recording to keep the experimental environment quiet. The experiment was carried out between 9:00-14:00 h. To acclimatize the animals to the test environment, the mouse had been acclimatized in the transparent box for one hour at 9:00 and 13:00 every day since two days before the formal experiment. Because the scratching of a mice often happens quickly, the action from mice starting to scratch its neck or back by its hind paw until the hind paw hitting on the ground or being put into its mouth to clean the dander is taken as one scratching behavior.
(§5) Statistical methods: the number of scratching was represented by average value±standard deviation, and Turkey test was employed to compare the difference between different groups.
(§6) Solution preparation and application method: 0.05 g of BLA was weighed and dissolved in 1000 ml of 0.5% sodium carboxymethyl cellulose solution. Histamine and chloroquine were prepared with 0.9% sterile saline, to make a dosage of histamine 100 μg and chloroquine 200 μg. To minimize the skin injure at the injection site, a thinner needle in 0.3 ml for insulin was connected to the needle port of the microinjector to reduce injure to mouse.

[3] = system: acute itch caused by chloroquine; assay: Acute itch model: scratching of mice after subcutaneous chloroquine, BLA given intragastrically 2 h before; settings: for Number of scratching in mouse in the chloroquine group (single animals): between 2 and 2.5 hours after BLA (30 min), individual mouse; for Number of scratching in mouse in the chloroquine group, average number: 30 min, solvent group 92.565556
From the text: as §2, §1, §3, §4, §5, §6

[4] = 0.5 mg/kg intragastric, P<0.001 vs solvent group
[5] = oral administration, 0.125-0.5 mg/kg

CCN1C[C@]2(COC)CC[C@H](OC)[C@]34C1[C@H]([C@H](OC)[C@H]23)[C@@]1(OC(C)=O)C[C@H](OC)[C@]2(O)C[C@@H]4[C@@H]1[C@H]2OC(=O)c1ccc(OC)cc1 [BLA, Bulleyaconitine A]
Drowsiness or other side effects in mouse ([1]; 0.125 mg/kg intragastric): no drowsiness or other side effects in mouse was observed | Drowsiness or other side effects in mouse ([1]; 0.25 mg/kg intragastric): no drowsiness or other side effects in mouse was observed | Drowsiness in mouse ([1]; 0.5 mg/kg intragastric): drowsiness in mouse was observed | Number of scratching in mouse in the histamine group (single animals) ([2]; 0.125 mg/kg BLA intragastric + histamine s.c.): 22 and 33 and 0 and 18 (2×) and 47 and 43 (3×) and 77 and 60 and 46 (2×) and 42 and 16 and 21 and 87 and 26 and 17 and 38 (3×) and 37 and 3 and 84 and 35 and 64 and 52 and 6 and 25 | Number of scratching in mouse in the histamine group, average number ([2]; 0.125 mg/kg BLA intragastric + histamine, n=30): 37.5 | Inhibition of itching caused by histamine (in words) ([2]; 0.125 mg/kg intragastric): did not inhibit | Number of scratching in mouse in the histamine group, average number ([2]; 0.25 mg/kg BLA intragastric + histamine, n=38): 24.76 | Inhibition of scratching response caused by histamine (in words) ([2]; 0.25 mg/kg intragastric, P<0.05 vs solvent group): significantly inhibited | Number of scratching in mouse in the histamine group (single animals) ([2]; 0.5 mg/kg BLA intragastric + histamine s.c.): 0 (12×) and 50 and 38 and 48 and 26 | Number of scratching in mouse in the histamine group, average number ([2]; 0.5 mg/kg BLA intragastric + histamine, n=16): 10.1325 | Inhibition of acute itch caused by histamine (in words) [2, 4]: completely inhibited | Dose dependence of inhibition of itching caused by histamine [2, 5]: in a dosage-dependent manner | Number of scratching in mouse in the chloroquine group (single animals) ([3]; 0.125 mg/kg BLA intragastric + chloroquine s.c.): 29 and 70 and 90 and 31 and 115 and 185 and 89 and 40 and 130 and 23 and 197 and 24 (2×) and 53 and 10 and 182 and 27 and 26 and 138 and 48 and 41 and 62 and 34 and 93 and 45 | Number of scratching in mouse in the chloroquine group, average number ([3]; 0.125 mg/kg BLA intragastric + chloroquine, n=25): 72.24 | Inhibition of acute itch caused by chloroquine (in words) ([3]; 0.125 mg/kg intragastric, P>0.05, not statistically significant): only had slightly inhibitory effect | Number of scratching in mouse in the chloroquine group (single animals) ([3]; 0.25 mg/kg BLA intragastric + chloroquine s.c.): 43 and 75 (2×) and 136 and 0 (3×) and 33 and 101 and 25 (2×) and 38 and 26 and 30 and 78 (3×) and 34 and 37 and 10 and 64 and 118 and 53 and 17 and 23 and 143 and 80 and 47 | Number of scratching in mouse in the chloroquine group, average number ([3]; 0.25 mg/kg BLA intragastric + chloroquine, n=28): 52.39 | Inhibition of scratching response caused by chloroquine (in words) ([3]; 0.25 mg/kg intragastric, P<0.01 vs solvent group): significantly inhibited | Number of scratching in mouse in the chloroquine group (single animals) ([3]; 0.5 mg/kg BLA intragastric + chloroquine s.c.): 0 (13×) and 27 and 20 and 23 | Number of scratching in mouse in the chloroquine group, average number ([3]; 0.5 mg/kg BLA intragastric + chloroquine, n=16): 4.3875 | Inhibition of acute itch caused by chloroquine (in words) [3, 4]: completely inhibited | Dose dependence of inhibition of itching caused by chloroquine [3, 5]: in a dosage-dependent manner

Reference: patent US12042486B2, “Use of bulleyaconitine A” (YUNNAN HAOPY PHARMACEUTICALS LTD, priority 2018, dated 2024)
